{"source": "patent US20250129135A1", "about": "“Multi-Agonist and Use Thereof” (priority 2021, published 2025)", "molecules": {"B1": {"name": "Compound 14 (peptide)", "peptide": "YXQGTXTSDYSIXLDKKAQXAFIEFLLETGPSSGAPPPS", "modifications": "Aib at 2; αMeF at 6; αMeL at 13; Lys 17 side chain AEEAc-AEEAc-γGlu-CO(CH2)18COOH; Aib at 20; C-terminal amide (NH2)"}}, "key": {"[1]": {"test_system": "C57 BL/6J DIO mice", "experiment": "In vivo pharmacodynamics in high-fat diet induced obesity (DIO) mice", "set-up": "species or system mouse", "conditions": "Table 9-1; 3 nmol/kg; Day 15; Mean±SEM", "source_text": "High-fat diet induced obesity (DIO) mice have characteristics such as obesity, elevated blood sugar, insulin resistance, and lipid abnormalities, all of which are very significant metabolic syndromes similar to a human body. The effects of the compounds of the present application on body weight, food intake, blood sugar, and lipids in C57 BL/6J DIO mice were studied.\nObesity was induced in mice by feeding with a high-fat diet (60 kcal % of calories from fat). […] After grouping, one animal was raised in each cage for one week, during which each of the animals was injected subcutaneously (S.C.) with a solvent (1×PBS, 5 ml/kg) to pre-adapt the experimental operation process.\nAfter the preparation of animals, vehicle control or compounds were administered to groups of animals by subcutaneous injection, in which the compounds were dissolved in 1×PBS, the dosage was 5 ml/kg, and the administration operation was started at 9:00 am and conducted once every three days (Q3D) for 15 days. Throughout the entire experimental study, animal weight and food intake were measured daily before administration, and compared with initial weight and food intake of the same animal before administration to calculate a percentage change in animal weight (%) and cumulative food intake, so as to evaluate the impact of compounds on changes in body weight and food intake.\nAt the end point of the experiment (Day 15), the body weight of the mice was measured, and then fasting blood glucose was measured by taking blood from the tail tip of broken tail without anesthesia. After the blood collection, the animals were anesthetized with CO2 and euthanized. Then, blood was taken from the heart and plasma was separated by centrifugation. The plasma was used to measure total cholesterol (TC), low-density lipoprotein cholesterol (LDL-C), triglycerides (TG), and blood insulin content. The liver was separated for homogenization, and then centrifuged to obtain the supernatant for determining triglyceride content in the liver.\nAll results were expressed in Mean±SEM, and the results were analyzed by one-way ANOVA using GraphPad Prism 5 software, followed by Dunnett's post hoc test compared to the Vehicle control group. The difference at the p<0.05 level was considered statistically significant."}, "[2]": {"test_system": "3T3-L1 adipocytes", "procedure": "Mouse 3T3-L1 precursor adipocytes can be induced to differentiate into mature adipocytes. […] After the cells became full and contacted with each other, DMEM differentiation medium containing 20% FBS, 0.5 mM IBMX, 0.4 ug/mL dexamethasone, and 5 ug/mL insulin was used to induce differentiation of 3T3-L1 adipocyte. After 5 days of induction and cultivation, DMEM medium containing […], 4 ug/ml insulin, and 10 uM rosiglitazone was used to continue induction and cultivation for 3 days. Then, DMEM medium containing 10% FBS was used to continue cultivation for 2-3 days to induce mature 3T3-L1 adipocytes.\nThe cAMP level produced by the compound on 3T3-L1 adipocytes was determined in this experiment. The tested compound solution was diluted step by step according to a concentration gradient of 3 times, to obtain a total of 10 series of concentration solutions. The solutions were added to induced mature 3T3-L1 adipocytes and incubated at room temperature for 60 minutes. 10 μL detection reagent in the kit was added to each well after drug incubation, and incubated at room temperature for another 60 minutes. […] GraphPad Prism 5 plotting software was used to create compound concentration-effect curves and calculation was performed."}, "[3]": {"test_system": "RIN-m5F cells", "format": "cell-based, rat", "procedure": "This experiment measured the cAMP level produced by the compound on RIN-mF cells.\nFrozen […] cells were placed in a 37° C. constant temperature water bath for rapid thawing and recovery. The cell solution was transferred to 10 ml of HBSS for resuspension, and centrifuged at 1000 rpm for 5 minutes at room temperature.\n10 μL cell suspension was added to each well in the 384 well plate. […] Using the ECHO liquid transfer system, 100 nL of the prepared compound solution was added to the corresponding cell suspensions in the 384 well plate, rotated and shaken at 1000 rpm for 1 minute to mix evenly, and then incubated at room temperature for 60 minutes. 10 μL of detection reagent was added to each wells after drug incubation was completed, and incubation was performed for 60 minutes."}, "[4]": {"biological_target": "Human GLP-1R (Homo sapiens, UniProt P43220)", "sequence (P43220 24-463)": "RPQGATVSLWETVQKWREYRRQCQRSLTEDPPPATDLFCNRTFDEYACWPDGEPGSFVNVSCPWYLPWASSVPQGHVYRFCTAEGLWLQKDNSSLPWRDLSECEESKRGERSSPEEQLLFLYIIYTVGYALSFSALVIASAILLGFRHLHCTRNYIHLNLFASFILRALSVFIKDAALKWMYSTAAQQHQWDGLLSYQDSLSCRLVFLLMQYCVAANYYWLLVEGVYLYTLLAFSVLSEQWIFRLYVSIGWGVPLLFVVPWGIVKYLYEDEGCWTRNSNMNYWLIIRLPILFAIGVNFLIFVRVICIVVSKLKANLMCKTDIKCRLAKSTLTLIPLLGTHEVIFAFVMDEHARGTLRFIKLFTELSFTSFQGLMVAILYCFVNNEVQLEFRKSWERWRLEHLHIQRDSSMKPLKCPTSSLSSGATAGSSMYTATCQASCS", "experiment": "cAMP (HTRF) activity in HEK-293 cells stably overexpressing human GLP-1 receptor", "format": "cell-based", "set-up": "expressed in transfected cells; host or cells: HEK-293", "conditions": "EC50 of human GLP-1 (7-37) / EC50 of compound", "procedure": "By measuring the cAMP signal response levels of the aforementioned cells, the agonistic activity of individual compound towards the corresponding receptor was determined. The intracellular cAMP content was measured using reagent kit available from Cisbio Corp. based on HTRF (homogeneous time-resolved fluorescence) technology.\nThe cell fluid was transferred to 10 ml of HBSS for resuspension, and centrifuged at 1000 rpm for 5 minutes at room temperature.\n10 μL cell suspension was added to each well in the 384 well plate. […] Using the ECHO liquid transfer system, 100 nL of the prepared compound solution was added to the corresponding cell suspensions in the 384 well plate, rotated and shaken at 1000 rpm for 1 minute to mix evenly, and then incubated at room temperature for 60 minutes. 10 μL of detection reagent was added to each well after drug incubation was completed, and incubation was performed in the kit at room temperature for 60 minutes. […] GraphPad Prism 5 plotting software was used to create compound concentration response curves and EC50 (nM) values was calculated."}, "[5]": {"biological_target": "human GLP-1 receptor (human, UniProt P43220 24-463)", "experiment": "cell-based or functional assay"}, "[6]": {"biological_target": "human GCG receptor (human, UniProt P47871 26-477)", "sequence (P47871 26-477)": "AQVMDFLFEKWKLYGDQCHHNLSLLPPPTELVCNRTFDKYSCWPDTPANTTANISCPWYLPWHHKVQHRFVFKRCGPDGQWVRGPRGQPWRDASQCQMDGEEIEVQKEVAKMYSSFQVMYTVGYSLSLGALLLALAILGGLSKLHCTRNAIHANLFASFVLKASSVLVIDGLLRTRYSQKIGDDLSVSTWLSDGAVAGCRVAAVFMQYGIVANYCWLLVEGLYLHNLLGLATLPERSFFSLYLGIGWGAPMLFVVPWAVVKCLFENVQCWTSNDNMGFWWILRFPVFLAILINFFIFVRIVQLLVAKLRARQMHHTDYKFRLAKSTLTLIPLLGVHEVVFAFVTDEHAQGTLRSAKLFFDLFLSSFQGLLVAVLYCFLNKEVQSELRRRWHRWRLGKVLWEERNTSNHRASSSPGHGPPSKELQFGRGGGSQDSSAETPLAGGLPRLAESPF", "experiment": "cell-based or functional assay"}, "[7]": {"biological_target": "T1, human GIP receptor (human, UniProt P48546 22-466)", "T1 sequence (looked up)": "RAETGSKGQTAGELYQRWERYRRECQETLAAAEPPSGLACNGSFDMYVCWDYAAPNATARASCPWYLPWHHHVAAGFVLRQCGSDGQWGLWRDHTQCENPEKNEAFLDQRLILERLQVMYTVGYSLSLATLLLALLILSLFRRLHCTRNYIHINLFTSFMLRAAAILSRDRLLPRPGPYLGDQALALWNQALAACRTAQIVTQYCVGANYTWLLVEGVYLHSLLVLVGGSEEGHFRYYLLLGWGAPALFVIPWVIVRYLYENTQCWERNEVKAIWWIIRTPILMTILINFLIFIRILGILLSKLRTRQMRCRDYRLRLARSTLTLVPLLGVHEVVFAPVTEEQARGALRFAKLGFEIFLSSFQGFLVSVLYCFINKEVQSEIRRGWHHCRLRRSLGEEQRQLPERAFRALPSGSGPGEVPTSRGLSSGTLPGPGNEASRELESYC", "experiment": "cell-based or functional assay"}}, "note": "Starred links: 1 amine or outer side, 2 acyl side, 3 side chain; linkers in the order of their positions; H or OH if unused. Non-standard residues stand in square brackets, D forms with d. Residues, ends and D or L forms follow the SMILES beside them. Groups on a side chain read outwards from the residue. *: point of attachment. C20 diacid = O=C(O)CCCCCCCCCCCCCCCCCCC(=O)*; γGlu = O=C(O)[C@H](CCC(=O)[*:2])N[*:1]; αMeL = CC(C)C[C@](C)(N)C(=O)O; AEEA = NCCOCCOCC(=O)O; Aib = CC(C)(N)C(=O)O"}
{"molecule": "CC[C@H](C)[C@H](NC(=O)[C@H](Cc1ccccc1)NC(=O)[C@H](C)NC(=O)C(C)(C)NC(=O)[C@H](CCC(N)=O)NC(=O)[C@H](C)NC(=O)[C@H](CCCCNC(=O)COCCOCCNC(=O)COCCOCCNC(=O)CC[C@H](NC(=O)CCCCCCCCCCCCCCCCCCC(=O)O)C(=O)O)NC(=O)[C@H](CCCCN)NC(=O)[C@H](CC(=O)O)NC(=O)[C@H](CC(C)C)NC(=O)[C@](C)(CC(C)C)NC(=O)[C@@H](NC(=O)[C@H](CO)NC(=O)[C@H](Cc1ccc(O)cc1)NC(=O)[C@H](CC(=O)O)NC(=O)[C@H](CO)NC(=O)[C@@H](NC(=O)[C@](C)(Cc1ccccc1F)NC(=O)[C@@H](NC(=O)CNC(=O)[C@H](CCC(N)=O)NC(=O)C(C)(C)NC(=O)[C@@H](N)Cc1ccc(O)cc1)[C@@H](C)O)[C@@H](C)O)[C@@H](C)CC)C(=O)N[C@@H](CCC(=O)O)C(=O)N[C@@H](Cc1ccccc1)C(=O)N[C@@H](CC(C)C)C(=O)N[C@@H](CC(C)C)C(=O)N[C@@H](CCC(=O)O)C(=O)NCC(=O)NCC(=O)N1CCC[C@H]1C(=O)N[C@@H](CO)C(=O)N[C@@H](CO)C(=O)NC(C)(C)C(=O)N[C@@H](Cc1c[nH]cn1)C(=O)N1CCC[C@H]1C(=O)N1CCC[C@H]1C(=O)N1CCC[C@H]1C(=O)N[C@@H](CO)C(N)=O", "note": "[Compound 24]", "values": [{"measurement": "Liver TG", "setting": "[1]", "result": "30.7 ± 1.31", "unit": "mg"}]}
{"molecule": "CC[C@H](C)[C@H](NC(=O)[C@H](Cc1ccccc1)NC(=O)[C@H](C)NC(=O)C(C)(C)NC(=O)[C@H](CCC(N)=O)NC(=O)[C@H](C)NC(=O)[C@H](CCCCNC(=O)COCCOCCNC(=O)CC[C@H](NC(=O)CCCCCCCCCCCCCCCCCCC(=O)O)C(=O)O)NC(=O)[C@H](CCCCN)NC(=O)[C@H](CC(=O)O)NC(=O)[C@H](CC(C)C)NC(=O)[C@](C)(CC(C)C)NC(=O)[C@@H](NC(=O)[C@H](CO)NC(=O)[C@H](Cc1ccc(O)cc1)NC(=O)[C@H](CC(=O)O)NC(=O)[C@H](CO)NC(=O)[C@@H](NC(=O)[C@H](Cc1ccccc1)NC(=O)[C@@H](NC(=O)CNC(=O)[C@H](CCC(N)=O)NC(=O)C(C)(C)NC(=O)[C@@H](N)Cc1ccc(O)cc1)[C@@H](C)O)[C@@H](C)O)[C@@H](C)CC)C(=O)N[C@@H](CCC(=O)O)C(=O)N[C@@H](Cc1ccc(O)cc1)C(=O)N[C@@H](CC(C)C)C(=O)N[C@@H](CC(C)C)C(=O)N[C@@H](CCC(=O)O)C(=O)NC(C)(C)C(=O)NCC(=O)N1CCC[C@H]1C(=O)N[C@@H](CO)C(=O)N[C@@H](CO)C(=O)NCC(=O)N[C@@H](C)C(=O)N1CCC[C@H]1C(=O)N1CCC[C@H]1C(=O)N1CCC[C@H]1C(=O)N[C@@H](CO)C(N)=O", "note": "[Compound 45] (H-Y[Aib]QGTFTSDYSI[αMeL]LDKK([AEEA-γGlu-C20 diacid])AQ[Aib]AFIEYLLE[Aib]GPSSGAPPPS-NH2)", "values": [{"measurement": "EC50", "setting": "[2]", "result": 8.11, "unit": "nM"}, {"measurement": "Rel. A (Relative Activity) on 3T3-L1 adipocyte", "setting": "[2]; relative to GIP", "result": 46.89, "unit": "%"}]}
{"molecule": "GLP-1(7-37) [reference compound]", "values": [{"measurement": "EC50", "setting": "[3]; cAMP, at least 3 independent tests, read-out: EC50 on RIN-m5F rat pancreatic islet tumor cells", "result": 1.03, "unit": "nM"}, {"measurement": "Rel. A (Relative Activity) on RIN-m5F", "setting": "[3]; relative to GLP-1(7-37)", "result": 100.00, "unit": "%"}, {"measurement": "Human GLP-1R Rel. A (Relative Activity)", "setting": "[4]", "result": 100.00, "unit": "%"}]}
{"molecule": "B1", "values": [{"measurement": "cAMP EC50, HEK-293 cells stably overexpressing human GLP-1 R", "setting": "[5]", "result": 0.01, "unit": "nM"}, {"measurement": "cAMP Rel. A (%) against human GLP-1 (7-37), human GLP-1 R cells", "setting": "[5]", "result": 440, "unit": "%"}, {"measurement": "cAMP Rel. A (%) against human GCG, human GCG R cells", "setting": "[6]", "result": 50, "unit": "%"}, {"measurement": "cAMP EC50, CHO cells stably overexpressing human GIP R", "setting": "[7]", "result": 0.011, "unit": "nM"}, {"measurement": "cAMP Rel. A (%) against human GIP, human GIP R cells", "setting": "[7]", "result": 1650, "unit": "%"}]}
